Measurements reported in the NIST ThermoML archive (doi:10.1016/j.jct.2018.02.022).

Test: xn = mol fraction of the nth substance listed
Conditions: 92.3 kPa, Liquid; for viscosity: Concentric cylinders viscometry; for speed of sound: Frequency=3 MHz, Single path-length method; for mass density: Vibrating tube method

OCCOCCO [diethylene glycol] + O
Conditions | mass density, 303.15 K [kg/m3] | mass density, 308.15 K [kg/m3] | speed of sound, 303.15 K [m/s] | speed of sound, 308.15 K [m/s] | viscosity, 303.15 K [mPa·s] | viscosity, 308.15 K [mPa·s]
x1 = 0.0097 | 1003.37 | 1001.63 | 1533.2 | 1542 | – | –
x1 = 0.0201 | 1010.67 | 1008.81 | 1557.2 | 1564 | – | –
x1 = 0.0297 | 1017 | 1015.02 | 1577.4 | 1582.4 | – | –
x1 = 0.0397 | 1023.28 | 1021.17 | 1596.1 | 1599.4 | – | –
x1 = 0.049 | 1028.58 | 1026.33 | – | – | 1.6 | 1.413
x1 = 0.0502 | 1029.24 | 1026.99 | 1614 | 1615.7 | – | –
x1 = 0.0591 | 1033.98 | 1031.63 | 1627.4 | 1627.8 | – | –
x1 = 0.0703 | 1039.6 | 1037.11 | 1642.7 | 1641.6 | – | –
x1 = 0.0796 | 1043.88 | 1041.29 | 1653.2 | 1650.9 | – | –
x1 = 0.0897 | 1048.13 | 1045.45 | 1663.2 | 1659.9 | – | –
x1 = 0.0992 | 1051.97 | 1049.2 | – | – | 2.605 | 2.273
x1 = 0.1004 | 1052.46 | 1049.66 | 1672.7 | 1668.3 | – | –
x1 = 0.149 | 1068.06 | 1064.94 | – | – | 3.83 | 3.297
x1 = 0.1507 | 1068.42 | 1065.27 | 1698.5 | 1690.5 | – | –
x1 = 0.1996 | 1079.15 | 1075.79 | 1705.1 | 1695.2 | – | –
x1 = 0.1998 | 1079.37 | 1076.01 | – | – | 5.27 | 4.501
x1 = 0.2467 | 1086.77 | 1083.27 | 1701.8 | 1690.9 | – | –
x1 = 0.249 | 1086.95 | 1083.44 | – | – | 6.766 | 5.753
x1 = 0.2943 | 1091.84 | 1088.25 | 1694.1 | 1682.5 | – | –
x1 = 0.2987 | 1092.38 | 1088.8 | – | – | 8.326 | 7.056
x1 = 0.3501 | 1096.45 | 1092.82 | – | – | 9.951 | 8.401
x1 = 0.3511 | 1096.61 | 1092.99 | 1681.7 | 1669.7 | – | –
x1 = 0.3995 | 1099.42 | 1095.83 | 1670.2 | 1658 | – | –
x1 = 0.4007 | 1099.43 | 1095.8 | – | – | 11.5 | 9.648
x1 = 0.4504 | 1101.7 | 1098.07 | – | – | 12.97 | 10.79
x1 = 0.4527 | 1101.88 | 1098.24 | 1657.7 | 1645.4 | – | –
x1 = 0.4973 | 1103.4 | 1099.78 | – | – | 14.26 | 11.82
x1 = 0.5008 | 1103.56 | 1099.92 | 1646.6 | 1634.3 | – | –
x1 = 0.5449 | 1104.75 | 1101.11 | 1637.3 | 1625 | – | –
x1 = 0.553 | 1105 | 1101.38 | – | – | 15.69 | 12.94
x1 = 0.5834 | 1105.61 | 1101.98 | 1629.2 | 1617 | – | –
x1 = 0.5938 | 1105.91 | 1102.29 | – | – | 16.62 | 13.67
x1 = 0.6482 | 1106.76 | 1103.13 | 1616.6 | 1604.4 | – | –
x1 = 0.6514 | 1106.89 | 1103.27 | – | – | 17.9 | 14.67
x1 = 0.6864 | 1107.34 | 1103.72 | – | – | 18.56 | 15.18
x1 = 0.6982 | 1107.42 | 1103.8 | 1608.1 | 1596 | – | –
x1 = 0.7444 | 1107.94 | 1104.33 | 1600.4 | 1588.3 | – | –
x1 = 0.7556 | 1108.01 | 1104.38 | – | – | 19.68 | 16.06
x1 = 0.7962 | 1108.41 | 1104.81 | 1592.7 | 1580.7 | – | –
x1 = 0.7999 | 1108.35 | 1104.73 | – | – | 20.32 | 16.57
x1 = 0.8401 | 1108.74 | 1105.14 | 1586.6 | 1574.5 | – | –
x1 = 0.8525 | 1108.74 | 1105.13 | – | – | 20.98 | 17.08
x1 = 0.8947 | 1109.09 | 1105.49 | 1579.5 | 1567.5 | – | –
x1 = 0.9002 | 1109.09 | 1105.5 | – | – | 21.55 | 17.53
x1 = 0.9092 | 1109.17 | 1105.58 | 1577.7 | 1565.7 | – | –
x1 = 0.919 | 1109.23 | 1105.64 | 1576.5 | 1564.5 | – | –
x1 = 0.9303 | 1109.27 | 1105.68 | 1575.3 | 1563.3 | – | –
x1 = 0.9393 | 1109.28 | 1105.69 | 1574.3 | 1562.3 | – | –
x1 = 0.9473 | 1109.36 | 1105.77 | 1573.3 | 1561.4 | – | –
x1 = 0.9554 | 1109.45 | 1105.86 | – | – | 22.07 | 17.95
x1 = 0.9566 | 1109.41 | 1105.82 | 1572.2 | 1560.2 | – | –
x1 = 0.9694 | 1109.47 | 1105.88 | 1570.8 | 1558.9 | – | –
x1 = 0.9801 | 1109.52 | 1105.93 | 1569.6 | 1557.7 | – | –
x1 = 0.9915 | 1109.56 | 1105.97 | 1568.3 | 1556.4 | – | –
x1 = 1 | 1109.6 | 1106.01 | 1567.2 | 1555.3 | 22.48 | 18.27
